Consider 4 compounds from US10745401B2, “Condensed lactam derivative” (Sumitomo Dainippon Pharma Co., Ltd., priority 2018, dated 2020).

Data set [1] in a line: Test 5: predictive test of human half-life (monkey distribution volume, serum unbound fraction, microsomal stability). The class given is in vivo. Conditions: predicted from cynomolgus monkey distribution volume (i.v.), serum unbound fraction and human hepatic microsome stability. Here is the method: Test 5: Predictive Test of Human Half-Life
The present compound was intravenously administered to cynomolgus monkey as an aqueous solution in 0.01 mol/L hydrochloric acid. Blood was collected on 5 minutes, 15 minutes, 30 minutes, 1 hour, 2 hours, 4 hours, 6 hours, and 24 hours after the administration. Plasma was obtained from the collected blood, the drug concentration in the plasma was measured by LC-MS, and the distribution volume of monkey was calculated from the transition of the concentration.
The unbound fraction rate of the present compound in human or monkey serum was measured by equilibrium dialysis method.
The half-life in human was calculated according to the following formula using the results of the distribution volume of monkey, the unbound fraction rate in human or monkey serum, and the metabolic stability in human hepatic microsome obtained in Test 3.

Data set [2] deals with T1, human 5-HT2A receptor (Homo sapiens (Human), UniProt P28223). The data set can be described thus: Test 1: binding activity for human 5-HT2A receptor ([3H]Ketanserin, CHO cell membrane fraction). The gist of the method: (§1)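 Compound displacement of [3H]ketanserin at 5-HT2A or [3H]spiperone at D2 was measured in CHO membrane fractions after 60 min at room temperature, with filtration and scintillation counting. IC50 was converted to Ki by Cheng–Prusoff using ligand concentration and Kd from saturation binding.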
T1 sequence (P28223 whole entry): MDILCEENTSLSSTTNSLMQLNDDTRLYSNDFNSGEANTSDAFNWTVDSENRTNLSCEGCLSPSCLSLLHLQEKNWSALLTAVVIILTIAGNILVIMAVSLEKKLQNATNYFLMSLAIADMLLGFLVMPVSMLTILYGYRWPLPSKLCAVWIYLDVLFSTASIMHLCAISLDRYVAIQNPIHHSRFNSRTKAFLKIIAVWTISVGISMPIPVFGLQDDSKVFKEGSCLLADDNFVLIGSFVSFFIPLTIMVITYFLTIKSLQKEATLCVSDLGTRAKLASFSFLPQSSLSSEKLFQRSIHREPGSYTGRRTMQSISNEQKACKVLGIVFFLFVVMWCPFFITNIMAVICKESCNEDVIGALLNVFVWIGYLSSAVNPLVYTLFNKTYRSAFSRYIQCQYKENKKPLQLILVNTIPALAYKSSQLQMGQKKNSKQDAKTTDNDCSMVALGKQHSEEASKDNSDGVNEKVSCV

A short description of data set [3]: Test 4: metabolic stability test in human hepatic microsome. The class given is in vitro ADME. Conditions: 0.1 mg/mL microsome, 0.1 μmol/L compound, 37° C., 30 minutes. The gist of the method:
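LC-MS quantified remaining parent after 30 min, 37° C, in pH 7.4 25 mmol/L phosphate containing 0.1 mg/mL human hepatic microsomes, 3.2 mmol/L NADPH and 0.1 μmol/L test compound. Value given as −LN(residual ratio)/30/0.1, mL/min/mg protein.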

The target in data set [4] is T2, hERG channel (Homo sapiens (Human), UniProt Q12809). The data set can be described thus: Test 6-1: inhibitory activity for hERG channel (auto patch clamp, Qpatch). It is filed as cell-based. Particulars: whole cell auto patch clamp, hERG-CHO cells; read-out: hERG inhibition IC50. The method in brief: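 Whole-cell patch clamp on an automated system using CHO cells stably expressing human hERG (IKr); 15 s pulse interval. Four increasing compound concentrations applied cumulatively; mean peak tail current from last 3 stimulations per concentration used. IC50 from inhibition versus pre-compound current, fitted by Hill equation.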
T2 sequence (Q12809 whole entry): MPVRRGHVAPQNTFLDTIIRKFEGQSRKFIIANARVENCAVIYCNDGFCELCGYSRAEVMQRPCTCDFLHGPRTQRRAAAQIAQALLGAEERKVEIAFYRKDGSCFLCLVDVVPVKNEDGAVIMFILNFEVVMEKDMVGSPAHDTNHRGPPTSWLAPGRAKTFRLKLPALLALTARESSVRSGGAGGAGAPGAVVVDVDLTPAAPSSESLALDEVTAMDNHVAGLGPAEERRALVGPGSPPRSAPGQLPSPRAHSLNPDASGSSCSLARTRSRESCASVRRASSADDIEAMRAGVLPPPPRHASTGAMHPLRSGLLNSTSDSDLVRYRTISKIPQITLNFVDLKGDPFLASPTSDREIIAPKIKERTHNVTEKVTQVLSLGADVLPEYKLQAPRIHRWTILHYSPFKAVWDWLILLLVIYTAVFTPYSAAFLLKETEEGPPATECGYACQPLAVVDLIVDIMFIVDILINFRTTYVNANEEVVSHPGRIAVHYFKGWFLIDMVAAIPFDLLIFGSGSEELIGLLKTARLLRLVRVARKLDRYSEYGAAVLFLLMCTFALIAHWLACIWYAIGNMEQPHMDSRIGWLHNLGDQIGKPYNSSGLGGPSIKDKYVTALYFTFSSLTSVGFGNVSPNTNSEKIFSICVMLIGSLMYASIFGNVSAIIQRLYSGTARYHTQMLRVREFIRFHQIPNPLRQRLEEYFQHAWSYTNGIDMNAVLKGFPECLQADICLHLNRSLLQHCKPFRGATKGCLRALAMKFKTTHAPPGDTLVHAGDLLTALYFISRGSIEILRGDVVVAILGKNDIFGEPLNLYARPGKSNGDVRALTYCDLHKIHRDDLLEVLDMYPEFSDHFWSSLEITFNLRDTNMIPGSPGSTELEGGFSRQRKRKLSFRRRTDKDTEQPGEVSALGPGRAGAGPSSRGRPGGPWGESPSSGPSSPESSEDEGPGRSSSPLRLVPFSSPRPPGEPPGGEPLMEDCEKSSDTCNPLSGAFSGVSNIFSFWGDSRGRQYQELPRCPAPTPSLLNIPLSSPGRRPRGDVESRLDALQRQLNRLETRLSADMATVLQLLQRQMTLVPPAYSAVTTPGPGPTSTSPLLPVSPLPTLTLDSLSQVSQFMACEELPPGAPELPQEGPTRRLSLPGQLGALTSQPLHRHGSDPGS
A general note: The hERG channel carries a current that helps repolarise heart muscle cells.

The target of data set [5] is T3, human 5-HT1A receptor (Homo sapiens (Human), UniProt P08908). The experiment in a line: Test 2: agonist activity for human 5-HT1A receptor ([35S]GTPγS binding). Conditions: for Emax at 10 µM: agonist activity in the presence of 10 μM of compound, relative to 100 μmol/L 5-HT; for EC50: [35S]GTPγS binding, concentration at which half the activity of Emax was obtained. It is filed as biochemical. The gist of the method: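 [35S]GTPγS binding read-out: after 60 min at room temperature with test compound in GDP buffer, human 5-HT1A receptor CHO membranes were vacuum-filtered and retained radioactivity scintillation-counted. Agonist activity calculated by formula.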
T3 sequence (P08908 whole entry): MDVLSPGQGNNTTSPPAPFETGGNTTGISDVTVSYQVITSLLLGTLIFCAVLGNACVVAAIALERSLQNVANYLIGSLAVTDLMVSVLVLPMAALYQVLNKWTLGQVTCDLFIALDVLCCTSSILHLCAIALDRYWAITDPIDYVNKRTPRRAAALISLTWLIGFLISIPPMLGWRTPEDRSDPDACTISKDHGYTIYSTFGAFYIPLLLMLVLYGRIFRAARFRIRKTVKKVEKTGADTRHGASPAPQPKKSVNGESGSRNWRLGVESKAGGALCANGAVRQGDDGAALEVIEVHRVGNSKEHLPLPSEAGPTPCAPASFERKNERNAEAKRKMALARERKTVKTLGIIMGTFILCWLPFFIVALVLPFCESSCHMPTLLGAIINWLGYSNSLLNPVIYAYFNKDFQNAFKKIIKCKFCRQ

Data set [6] has as its target T1, human 5-HT2A receptor. The experiment in a line: Test 3: antagonist activity for human 5-HT2A receptor (aequorin luminescence, CHO-K1 cells). Particulars: CHO-K1 cells, 1 nmol/L 5-HT. It is filed as cell-based. The gist of the method:
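CHO-K1 cells transiently co-expressing aequorin, Gα16 and receptor; compound in DMSO added and luminescence recorded on FDSS/μCELL.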

The target of data set [7] is T2, hERG channel. The data set can be described thus: Test 6-2: inhibitory activity for hERG channel (auto patch clamp, Qube). Particulars: Test 6-2, hERG-CHO cells, whole cell patch clamp; read-out: hERG inhibition IC50. The class given is cell-based. Here is the method: Extracellular fluid: 2 mmol/L CaCl2, 1 mmol/L MgCl2, 10 mmol/L HEPES, 4 mmol/L KCl, 145 mmol/L NaCl, 10 mmol/L Glucose
(Measurement of Current Value and Data Analysis)
The cell suspension, the extracellular fluid, the intracellular fluid, and the measurement plate were set in the auto patch clamp system, and hERG current was measured by whole cell patch clamp method. […] Each pulse interval was 15 seconds. […] The test was carried out by applying incrementally 4 concentrations of each test compound, and the average of the maximum peak tail currents which were obtained from the last 3 stimulations in each concentration was determined as the evaluated data. Based on the current inhibition rate for a pre-applied current at each concentration of each test compound, IC50 value was calculated by Hill equation with the software.

Another data set concerns the target human D2 receptor (Homo sapiens (Human), UniProt P14416). The experiment in a line: Test 1: binding activity for human D2 receptor ([3H]Spiperone, CHO cell membrane fraction). Particulars: human D2 receptor, [3H]Spiperone. The method in brief: as §1
The target in data set [8] is T3, human 5-HT1A receptor. The data set can be described thus: Test 1: binding activity for human 5-HT1A receptor ([3H]8-OH-DPAT, CHO cell membrane fraction). The gist of the method: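 Membranes incubated with [3H]8-OH-DPAT and compound for 60 min at room temperature, then filtered on polyethylenimine-coated glass-fibre plates and counted by liquid scintillation. IC50 from Hill analysis; Ki = IC50/(1+S/Kd), Kd from saturation binding on the same membranes.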

A short description of data set [9]: Test 10: intracerebral transferability of rats (Kp,uu,brain). The class given is in vivo, rat. Conditions: unbound drug concentration ratio brain/plasma. The protocol: Test 10: Evaluation of Intracerebral Transferability (Test for Intracerebral Transferability of Rats)
In this test, intracerebral transferability of the present compounds was evaluated by the following method. The present compounds were subcutaneously administered as a solution in saline, or orally administered as a suspension in methyl cellulose to 7-week-old SD or WKY rats. Plasma and brain were collected on 0.5 hours, 1 hour, or 2 hours after the administration to measure the drug concentrations in plasma and brain by LC-MS.
Binding rates of the present compound to plasma and brain protein were measured by equilibrium dialysis method.
Kp,uu,brain (unbound drug concentration ratio between brain/plasma) can be calculated by applying the compound concentrations in plasma and brain and the binding rates to plasma and brain protein obtained from the above test into the following formula. Kp,uu,brain=(Compound concentration in brain×(100−Binding rate to brain protein (%))/100)/(Compound concentration in plasma×(100−Binding rate to plasma protein (%))/100)

Sequence of human D2 receptor (P14416 whole entry): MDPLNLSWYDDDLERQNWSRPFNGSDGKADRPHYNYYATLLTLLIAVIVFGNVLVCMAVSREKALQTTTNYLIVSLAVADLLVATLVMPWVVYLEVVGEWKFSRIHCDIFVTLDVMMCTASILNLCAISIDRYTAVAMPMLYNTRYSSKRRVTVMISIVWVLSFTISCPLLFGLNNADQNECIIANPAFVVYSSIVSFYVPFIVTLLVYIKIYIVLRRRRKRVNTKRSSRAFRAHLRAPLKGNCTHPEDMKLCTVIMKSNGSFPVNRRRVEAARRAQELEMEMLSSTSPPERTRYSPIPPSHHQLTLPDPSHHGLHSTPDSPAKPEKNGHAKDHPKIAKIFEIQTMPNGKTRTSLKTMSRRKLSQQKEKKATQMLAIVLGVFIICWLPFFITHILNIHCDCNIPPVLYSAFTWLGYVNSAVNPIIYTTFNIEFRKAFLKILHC

In the case of `Cn1ncc2c1CCCN(CCN1CCN(c3noc4ccccc34)CC1)C2=O` [Example 80], in [1], the half-life was 10 h. The Ki at human 5-HT2A receptor [2] was determined as 2.8 nM. Besides, the “Metabolic stability in human hepatic microsome” value (“Metabolic stability” for short) in data set [3] was 0.012 mL/min/mg protein. The results for the IC50 at hERG channel [4] and against human 5-HT2A receptor [6] were 15400 nM and 55 nM, respectively. The Emax at 10 µM on human 5-HT1A receptor [5] turned out to be 63%.

Turning to `Cc1nn(C)c2c1C(=O)N(CCN1CCC(c3noc4ccccc34)CC1)CCC2` [Example 91], the “Metabolic stability” value in data set [3] is reported as less than 0.05 mL/min/mg protein. Also, on hERG channel [7], the IC50 worked out at 1800 nM. At human 5-HT1A receptor [5], this compound registered an EC50 of 8.74 nM. Further, on human 5-HT1A receptor [5], the Emax at 10 µM turned out to be 46%. Moreover, the figures for the Ki at human D2 receptor and on human 5-HT1A receptor [8] were 103 nM and 0.57 nM, respectively.

As for `COc1cc2c(cn1)C(=O)N(CCN1CCN(c3nsc4ccccc34)CC1)CC2` [Example 2, 2-{2-[4-(1,2-Benzoisothiazol-3-yl)piperazin-1-yl]ethyl}-6-methoxy-3,4-dihydro-2,7-naphthyridin-1(2H)-one], the “Kp, uu, brain” value in data set [9] turned out to be 1.27. Besides, the “Metabolic stability” value in data set [3] is on record as 0.22 mL/min/mg protein. Moreover, the IC50 on hERG channel [4] turned out to be 2500 nM. Besides, at human 5-HT1A receptor [5], the EC50 came out at 0.18 nM and the Emax at 10 µM is 69%. The compound also showed a Ki at human D2 receptor of 128 nM. This compound also had a Ki on human 5-HT1A receptor [8] of 0.03 nM.

For `Cc1nn(C)c2c1C(=O)N(CCN1CCN(c3noc4ccccc34)CC1)CCC2` [Example 92], the “Metabolic stability” value in data set [3] is recorded as 0.065 mL/min/mg protein. For the same compound, the IC50 at hERG channel [7] is more than 10000 nM. Further, the midpoint of the response on human 5-HT1A receptor [5], the EC50, lay at 76.2 nM. Also, the Emax at 10 µM on human 5-HT1A receptor [5] was found to be 43%. Further, the Ki on human D2 receptor was 738 nM; on human 5-HT1A receptor [8], 5.19 nM.

A word on the half-life: it is how long it takes for the measured level to halve. By Ki is commonly meant a dissociation constant, usually derived from enzyme kinetics or from competition with a known ligand. As a reminder, the IC50 is the point on the concentration scale where inhibition reaches its midpoint. The term Emax denotes the maximal effect, on the per cent scale that the assay sets. What is called EC50 is the concentration giving half of the maximal effect.
